Converted amounts (≈) assume the structure as drawn. Numbered stars: 1 amine (or outer) side, 2 acyl side, 3 side chain; on linkers, the order of the positions; unused ones are H or OH. Peptide text beside a SMILES is read from it. * marks the point of attachment. C20 diacid = O=C(O)CCCCCCCCCCCCCCCCCCC(=O)*; C18 diacid = O=C(O)CCCCCCCCCCCCCCCCC(=O)*; γGlu = O=C(O)[C@H](CCC(=O)[*:2])N[*:1]
Experiments:
[1] = Assay (IX) pK, T½ in mini-pig; type: in vivo, Göttingen mini-pigs; conditions: i.v.
Description: Assay (IX)—pK—Determination of T½ in Mini-Pig
Pharmacokinetic (PK) studies in Göttingen mini-pigs were conducted in order to determine the T½ of the mimylin compound according to the Examples as indicated after i.v. administration.
T½ values of the amylin analogues of the invention is determined by pharmacokinetic studies in female Göttingen mini-pigs from Ellegaard Göttingen Minipigs ApS and the principles of laboratory animal care are followed.
An acclimatisation period of approximately 6-10 days was allowed before the animals entered the study. At start of the acclimatisation period the mini-pigs were about 5 to 12 months old and in the weight range of 15-35 kg. The mini-pigs had two central venous catheters inserted which were used for blood sampling.
The studies were conducted in an animal room which was illuminated to give a cycle of approximately 12 hours light and 12 hours darkness. The animals were housed individually. The animals had free access to domestic quality drinking water during the study, and no food restrictions applied for PK studies. The animals were weighed on arrival and on the days of dosing.
In the present studies the test substances were administered intravenously in approximately 5 nmol/kg dose. The animals received a single intravenous injection in one central venous catheter and blood sampling was performed from the other catheter, where possible. Each test substance was given to typically three but in some cases two or four animals.
A full plasma concentration-time profile, employing 12-16 sampling points, was obtained from each animal. In example blood samples were collected according to the following schedule:
After Intravenous Administration:
Pre-dose (0), 0.5, 1, 2, 4, 6, 8, 12, 24, 48, 72, 96, 120, 168 and 240 hours after injection. In some cases also additional blood samples up to 288 hours post injection were taken.
At each sampling time, 0.5 to 2 ml of blood was drawn from each animal. The blood samples were taken via the central venous catheter.
The 0.8 mL blood samples were collected into EDTA test tubes (8 mM EDTA). Blood samples were kept on ice for max 20 min. before centrifugation. Plasma was separated using centrifugation (i.e. at 4° C., 10 min., 2000G) and was immediately transferred to Micronic tubes on dry ice. Approximately 200 μl plasma was transferred to each Micronic tube. The plasma was stored at −20° C. until assayed. The plasma samples were assayed for the content of compound using LCMS.
The plasma concentration-time profiles were analysed by a non-compartmental pharmacokinetic analysis (NCA) using Phoenix WinNonlin 6.3 (Pharsight Inc., Mountain View, Calif., USA). NCA was performed using the individual plasma concentration-time profiles from each animal. T½ is the terminal half-life=In2/λz and was determined from λz, the first order rate constant associated with the terminal (log-linear) portion of the curve, estimated by linear regression of time vs. log concentration.
MS-Method for Amylin and Mimylin Quantification
40 μl plasma is diluted with 120 μl 66.67% EtOH+1% HCOOH and mixed. Centrifuged for 20 min. at 13000 rpm, 4° C. The supernatant is analyzed by an LC-MS method on a Sciex API 3000 and quantitated with a standard made up in plasma

[2] = Assay (IV) determination of solubility; type: physicochemical
Description: Assay (IV)—Determination of Solubility
The mimylin peptide was dissolved in water at ˜500 nmol/ml and mixed 1:1 with a series of buffers (100 mM glycylglycine pH 3.0, 100 mM glycylglycine pH 4.0, 100 mM glycylglycine pH 5.0, 100 mM bistrispropane pH 6.0, 100 mM bistrispropane pH 6.5, 100 mM bistrispropane pH 7.0, 100 mM bistrispropane pH 7.5, 100 mM bistrispropane pH 8.0).

PK mini pig iv T½ [1] [h]	Solubility ([2]; pH 3.0)	Solubility ([2]; pH 4.0)	Solubility ([2]; pH 5.0)	Solubility ([2]; pH 6.0)	Solubility ([2]; pH 6.5)	Solubility ([2]; pH 7.0)	Solubility ([2]; pH 7.5)	Solubility ([2]; pH 8.0)	solubility at 18 h ([2]; pH 5.0) [µM]	Compound
86	≧200 μM	≧200 μM	≧200 μM	≧200 μM	≧200 μM	≧200 μM	≧200 μM	≧200 μM		CC(C)C[C@H](NC(=O)[C@H](C)NC(=O)[C@H](C)NC(=O)[C@@H](NC(=O)[C@H](CO)NC(=O)[C@H](CC(C)C)NC(=O)[C@H](CCC(=O)O)NC(=O)[C@H](CO)NC(=O)[C@H](C)NC(=O)[C@H](CCC(=O)O)NC(=O)CCCCCCCCCCCCCCCCC(=O)O)[C@@H](C)O)C(=O)NCC(=O)N[C@@H](CCCNC(=N)N)C(=O)N[C@@H](CC(C)C)C(=O)N[C@@H](CO)C(=O)N[C@@H](C)C(=O)N[C@@H](CCC(=O)O)C(=O)N[C@@H](CC(C)C)C(=O)N[C@@H](C)C(=O)N[C@@H](CCC(=O)O)C(=O)N[C@@H](CC(C)C)C(=O)N[C@@H](C)C(=O)N[C@H](C(=O)N[C@@H](CC(C)C)C(=O)N1CCC[C@H]1C(=O)N[C@@H](CCCNC(=N)N)C(=O)N[C@H](C(=O)N[C@@H](CCC(=O)O)C(=O)N[C@H](C(=O)NCC(=O)N1CCC[C@H]1C(=O)N[C@@H](CCC(=O)O)C(=O)N[C@@H](CO)C(=O)N1CCC[C@H]1C(N)=O)[C@@H](C)O)[C@@H](C)O)[C@@H](C)O [compound 13, [N-terminal(C18 diacid), 18A]mimylin] ({C18 diacid}-EASELSTAALGRLSAELAELATLPRTETGPESP-NH2)
118	≧200 μM	≧200 μM	≧200 μM	≧200 μM	≧200 μM	≧200 μM	≧200 μM	≧200 μM		CC(C)C[C@H](NC(=O)[C@H](C)NC(=O)[C@H](C)NC(=O)[C@@H](NC(=O)[C@H](CO)NC(=O)[C@H](CC(C)C)NC(=O)[C@H](CCC(=O)O)NC(=O)[C@H](CO)NC(=O)[C@H](C)NC(=O)[C@H](CCC(=O)O)NC(=O)CCCCCCCCCCCCCCCCC(=O)O)[C@@H](C)O)C(=O)NCC(=O)N[C@@H](CCCNC(=N)N)C(=O)N[C@@H](CC(C)C)C(=O)N[C@@H](CO)C(=O)N[C@@H](C)C(=O)N[C@@H](CCC(=O)O)C(=O)N[C@@H](CC(C)C)C(=O)N[C@@H](Cc1cnc[nH]1)C(=O)N[C@@H](CCC(=O)O)C(=O)N[C@@H](CC(C)C)C(=O)N[C@@H](C)C(=O)N[C@H](C(=O)N[C@@H](CC(C)C)C(=O)N1CCC[C@H]1C(=O)N[C@@H](CCCNC(=N)N)C(=O)N[C@H](C(=O)N[C@@H](CCC(=O)O)C(=O)N[C@H](C(=O)NCC(=O)N[C@@H](CO)C(=O)NCC(=O)N[C@@H](CO)C(=O)N1CCC[C@H]1C(N)=O)[C@@H](C)O)[C@@H](C)O)[C@@H](C)O [compound 21, [N-terminal(C18 diacid), 30S, 31G]mimylin] ({C18 diacid}-EASELSTAALGRLSAELHELATLPRTETGSGSP-NH2)
87	≧200 μM	≧200 μM		≧200 μM	≧200 μM	≧200 μM	≧200 μM	≧200 μM	32 (≈ 129 µg/mL)	CC(C)C[C@H](NC(=O)[C@H](CCCNC(=N)N)NC(=O)CNC(=O)[C@H](CC(C)C)NC(=O)[C@@H](NC(=O)[C@H](C)NC(=O)[C@@H](NC(=O)[C@H](CO)NC(=O)[C@H](CC(C)C)NC(=O)[C@H](CCC(N)=O)NC(=O)[C@H](CO)NC(=O)[C@H](C)NC(=O)CC[C@H](NC(=O)CCCCCCCCCCCCCCCCCCC(=O)O)C(=O)O)[C@@H](C)O)C(C)C)C(=O)N[C@@H](CO)C(=O)N[C@@H](CCC(N)=O)C(=O)N[C@@H](CCC(=O)O)C(=O)N[C@@H](CC(C)C)C(=O)N[C@@H](Cc1cnc[nH]1)C(=O)N[C@@H](CCC(=O)O)C(=O)N[C@@H](CC(C)C)C(=O)N[C@@H](CCC(N)=O)C(=O)N[C@H](C(=O)N[C@@H](Cc1ccc(O)cc1)C(=O)N1CCC[C@H]1C(=O)N[C@@H](CCCNC(=N)N)C(=O)N[C@H](C(=O)N[C@@H](CCC(=O)O)C(=O)N[C@H](C(=O)NCC(=O)N[C@@H](CO)C(=O)N[C@@H](CCC(N)=O)C(=O)N[C@H](C(=O)N[C@@H](Cc1ccc(O)cc1)C(N)=O)[C@@H](C)O)[C@@H](C)O)[C@@H](C)O)[C@@H](C)O [compound 116, [N-terminal(C20 diacid-gGlu), des1, 4Q, 9V, 15Q, 21Q, 23Y, 30S, 31Q, 32T, 33Y]mimylin] ({C20 diacid-γGlu}-ASQLSTAVLGRLSQELHELQTYPRTETGSQTY-NH2)
90	≧200 μM	≧200 μM	≧200 μM	≧200 μM	≧200 μM	≧200 μM	≧200 μM	≧200 μM		CC(C)C[C@H](NC(=O)[C@H](CCC(=O)O)NC(=O)[C@H](Cc1cnc[nH]1)NC(=O)[C@H](CC(C)C)NC(=O)[C@H](CCC(=O)O)NC(=O)[C@H](C)NC(=O)[C@H](CO)NC(=O)[C@H](CC(C)C)NC(=O)[C@H](CCCNC(=N)N)NC(=O)CNC(=O)[C@H](CC(C)C)NC(=O)[C@@H](NC(=O)[C@H](C)NC(=O)[C@@H](NC(=O)[C@H](CO)NC(=O)[C@H](CC(C)C)NC(=O)[C@H](CCC(=O)O)NC(=O)[C@H](CO)NC(=O)[C@H](C)NC(=O)[C@H](CCC(=O)O)NC(=O)CCCCCCCCCCCCCCCCC(=O)O)[C@@H](C)O)C(C)C)C(=O)N[C@@H](C)C(=O)N[C@H](C(=O)N[C@@H](CC(C)C)C(=O)N1CCC[C@H]1C(=O)N[C@@H](CCCNC(=N)N)C(=O)N[C@H](C(=O)N[C@@H](CCC(=O)O)C(=O)N[C@H](C(=O)NCC(=O)N1CCC[C@H]1C(=O)N[C@@H](CCC(=O)O)C(=O)N[C@@H](CO)C(=O)N1CCC[C@H]1C(N)=O)[C@@H](C)O)[C@@H](C)O)[C@@H](C)O [compound 9, [N-terminal(C18 diacid), 9V]mimylin] ({C18 diacid}-EASELSTAVLGRLSAELHELATLPRTETGPESP-NH2)
171	≧200 μM	≧200 μM	≧200 μM	≧200 μM	≧200 μM	≧200 μM	≧200 μM	≧200 μM		CC(C)C[C@H](NC(=O)[C@H](C)NC(=O)[C@H](C)NC(=O)[C@@H](NC(=O)[C@H](CO)NC(=O)[C@H](CC(C)C)NC(=O)[C@H](CCC(=O)O)NC(=O)[C@H](CO)NC(=O)[C@H](C)NC(=O)CC[C@H](NC(=O)CCCCCCCCCCCCCCCCCCC(=O)O)C(=O)O)[C@@H](C)O)C(=O)NCC(=O)N[C@@H](CCCNC(=N)N)C(=O)N[C@@H](CC(C)C)C(=O)N[C@@H](CO)C(=O)N[C@@H](C)C(=O)N[C@@H](CCC(=O)O)C(=O)N[C@@H](CC(C)C)C(=O)N[C@@H](Cc1cnc[nH]1)C(=O)N[C@@H](CCC(=O)O)C(=O)N[C@@H](CC(C)C)C(=O)N[C@@H](C)C(=O)N[C@H](C(=O)N[C@@H](CC(C)C)C(=O)N1CCC[C@H]1C(=O)N[C@@H](CCCNC(=N)N)C(=O)N[C@H](C(=O)N[C@@H](CCC(=O)O)C(=O)N[C@H](C(=O)NCC(=O)N[C@@H](CO)C(=O)NCC(=O)N[C@@H](CO)C(=O)N1CCC[C@H]1C(N)=O)[C@@H](C)O)[C@@H](C)O)[C@@H](C)O [Ex. #40, [N-terminal(C20 diacid-gGlu), des1, 30S, 31G]mimylin] ({C20 diacid-γGlu}-ASELSTAALGRLSAELHELATLPRTETGSGSP-NH2)
